# Patent US20230114241A1, “METHODS OF TREATING EPILEPSY USING THE SAME” (Trevena, Inc., priority 2019, published 2023)
# Target: human sphingosine-1-phosphate receptor 1 (S1P1) (Homo sapiens, UniProt P21453)
# Test: Inhibition of cAMP production (HTRF cAMP HiRange), S1P1 CHO-K1 cells
# Type: cell-based
# Conditions: inhibition of cAMP production, S1P1; read-out: hS1P1 CAMP pEC50 (converted)
# Outline: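 Intracellular cAMP changes read by TR-FRET (HTRF HiRange, 1 h room temperature) after 30 min compound exposure at 37 °C. Cells: overnight-plated CHO-K1 stably expressing tagged human S1P1 with EA-β-arrestin2. Responses normalized to fingolimod.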
# Chain of human sphingosine-1-phosphate receptor 1 (S1P1) (P21453 whole entry): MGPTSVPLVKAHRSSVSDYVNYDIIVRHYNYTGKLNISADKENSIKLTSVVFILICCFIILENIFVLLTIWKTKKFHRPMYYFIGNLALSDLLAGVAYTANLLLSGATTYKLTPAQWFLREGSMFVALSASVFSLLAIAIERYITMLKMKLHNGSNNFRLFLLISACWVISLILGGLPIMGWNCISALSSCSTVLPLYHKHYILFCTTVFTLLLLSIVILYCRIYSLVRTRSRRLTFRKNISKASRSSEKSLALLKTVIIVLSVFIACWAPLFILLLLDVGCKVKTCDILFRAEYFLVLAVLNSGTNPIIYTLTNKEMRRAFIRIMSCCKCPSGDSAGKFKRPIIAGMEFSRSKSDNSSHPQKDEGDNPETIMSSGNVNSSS
row,Structure (SMILES),EC50 [nM]
1,"COc1cccc2oc(-c3ccc4c(c3)nnn4CC(C)C)nc12 [Compound 450, 2-(1-isobutyl-1H-benzo[d][1,2,3]triazol-5-yl)-4-methoxy-benzo[d]oxazole]",< 316
2,"COc1ccc2oc(-c3ccc4c(c3)nnn4CC(C)C)nc2c1 [Compound 451, 2-(1-isobutyl-1H-benzo[d][1,2,3]triazol-5-yl)-5-methoxy-benzo[d]oxazole]",< 316
3,"COc1ccc2nc(-c3ccc4c(c3)nnn4CC(C)C)oc2c1 [Compound 452, 2-(1-isobutyl-1H-benzo[d][1,2,3]triazol-5-yl)-6-methoxy-benzo[d]oxazole]",> 316
4,"CC(C)n1nnc2cc(-c3nc4c(o3)CCc3sccc3-4)ccc21 [Compound 456, 4-[1-(propan-2-yl)-1H-1,2,3-benzotriazol-5-yl]-5-oxa-10-thia-3-azatricyclo[7.3.0.0^2,6] dodeca-1(9),2(6),3,11-tetraene]",< 316
5,"CC(=O)Nc1ccccc1-c1coc(-c2ccc3c(c2)nnn3C(C)C)n1 [Compound 458, N-(2-{2-[1-(propan-2-yl)-1H-1,2,3-benzotriazol-5-yl]-1,3-oxazol-4-yl}phenyl)acetamide]",> 316
6,"CC(C)n1nnc2cc(-c3nc(-c4cccs4)co3)ccc21 [Compound 459, 1-(propan-2-yl)-5-[4-(thiophen-2-yl)-1,3-oxazol-2-yl]-1H-1,2,3-benzotriazole]",> 316
7,"CC(C)(O)Cn1nnc2cc(-c3nc(-c4ccncc4C(F)(F)F)no3)ccc21 [Compound 460, 2-methyl-1-(5-{3-[3-(trifluoromethyl)pyridin-4-yl]-1,2,4-oxadiazol-5-yl}-1H-1,2,3-benzotriazol-1-yl)propan-2-ol]",> 316
8,"CC(C)Cn1nnc2cc(-c3nc4c(Br)cccc4o3)ccc21 [Compound 461, 4-bromo-2-(1-isobutyl-1H-benzo[d][1,2,3]triazol-5-yl)benzo[d]oxazole]",> 316
9,"CC(C)n1nnc2cc(-c3nc4c(o3)COc3ccccc3-4)ccc21 [Compound 462, 5-{4H-chromeno[4,3-d][1,3]oxazol-2-yl}-1-(propan-2-yl)-1H-1,2,3-benzotriazole]",< 316
10,"CC(C)n1nnc2cc(-c3nc(-c4ccccn4)co3)ccc21 [Compound 474, 1-(propan-2-yl)-5-[4-(pyridin-2-yl)-1,3-oxazol-2-yl]-1H-1,2,3-benzotriazole]",> 316
11,"Cc1occc1-c1noc(-c2ccc3c(c2)nnn3CC(C)(C)O)n1 [Compound 492, 2-methyl-1-{5-[3-(2-methylfuran-3-yl)-1,2,4-oxadiazol-5-yl]-1H-1,2,3-benzotriazol-1-yl}propan-2-ol]",> 316
12,"CC(C)n1nnc2cc(-c3nc4ccncc4o3)ccc21 [Compound 503, 2-(1-isopropyl-1H-benzo[d][1,2,3]triazol-5-yl)oxazolo[5,4-c]pyridine]",> 316
13,"CC(C)Cn1nnc2cc(-c3nc4ccncc4o3)ccc21 [Compound 504, 2-(1-isobutyl-1H-benzo[d][1,2,3]triazol-5-yl)oxazolo[5,4-c]pyridine]",> 316
14,"COc1cccc2nc(-c3ccc4c(c3)nnn4C(C)C)oc12 [Compound 515, 2-(1-isopropyl-1H-benzo[d][1,2,3]triazol-5-yl)-7-methoxy-benzo[d]oxazole]",< 316
15,"Cc1ccccc1-c1c[nH]c(-c2ccc3c(c2)nnn3C(C)C)c1 [Compound 516, 5-[4-(2-methylphenyl)-1H-pyrrol-2-yl]-1-(propan-2-yl)-1H-1,2,3-benzotriazole]",> 316
16,"Cc1ccccc1-c1cc(-c2ccc3c(c2)nnn3C(C)C)n(C)c1 [Compound 517, 5-[1-methyl-4-(2-methylphenyl)-1H-pyrrol-2-yl]-1-(propan-2-yl)-1H-1,2,3-benzotriazole]",> 316
17,"COCCn1cc(-c2ccccc2C)cc1-c1ccc2c(c1)nnn2C(C)C [Compound 534, 5-[1-(2-methoxyethyl)-4-(2-methylphenyl)-1H-pyrrol-2-yl]-1-(propan-2-yl)-1H-1,2,3-benzotriazole]",> 316
18,"CC(C)n1nnc2cc(-c3c[nH]c(-c4ccccc4)c3)ccc21 [Compound 543, 5-(5-phenyl-1H-pyrrol-3-yl)-1-(propan-2-yl)-1H-1,2,3-benzotriazole]",< 316
19,"CCC1(CC)CC(=O)c2cc(-c3nc(-c4cncc(NS(C)(=O)=O)c4)no3)ccc2O1 [Compound 545, N-(5-(5-(2,2-diethyl-4-oxochroman-6-yl)-1,2,4-oxadiazol-3-yl)pyridin-3-yl)methanesulfonamide]",< 316
20,"CC(C)(O)Cn1nnc2cc(-c3nc(-c4cocn4)no3)ccc21 [Compound 570, 2-methyl-1-{5-[3-(1,3-oxazol-4-yl)-1,2,4-oxadiazol-5-yl]-1H-1,2,3-benzotriazol-1-yl}propan-2-ol]",> 316
21,"COc1ccccc1-c1nc(-c2ccc3c(c2)nnn3C(C)C)co1 [Compound 575, 5-[2-(2-methoxy-phenyl)-1,3-oxazol-4-yl]-1-(propan-2-yl)-1H-1,2,3-benzotriazole]",< 316
22,"CCC1(CC)CC(=O)c2cc(-c3nc(-c4ccc(NC(C)=O)cc4OC(F)(F)F)no3)ccc2O1 [Compound 584, N-{4-[5-(2,2-diethyl-4-oxo-3,4-dihydro-2H-1-benzopyran-6-yl)-1,2,4-oxadiazol-3-yl]-3-(trifluoromethoxy)phenyl}acetamide]",< 316

# Results, then the compound that gave them:
row,EC50 [nM],Structure (SMILES)
1,< 316,"N#Cc1cc(-c2nc(-c3ccc4sc(N)nc4c3)no2)ccc1NCC1CC1 [Compound 440, 5-(3-(2-aminobenzo[d]thiazol-5-yl)-1,2,4-oxadiazol-5-yl)-2-((cyclopropylmethyl)amino)benzonitrile]"
2,< 316,"CC(C)Nc1ccc(-c2nc(-c3ccc4sc(N)nc4c3)no2)cc1C#N [Compound 441, 5-(3-(2-aminobenzo[d]thiazol-5-yl)-1,2,4-oxadiazol-5-yl)-2-(isopropylamino) benzonitrile]"
3,> 316,"CCC1(CC)CC(=O)c2cc(-c3nc(-c4ccc5sc(N)nc5c4)no3)ccc2O1 [Compound 446, 6-(3-(2-aminobenzo [d]thiazol-5-yl)-1,2,4-oxadiazol-5-yl)-2,2-diethylchroman-4-one]"
4,< 316,"CC(C)n1nnc2cc(-c3nc4c(ccc5sccc54)o3)ccc21 [Compound 457, 4-[1-(propan-2-yl)-1H-1,2,3-benzotriazol-5-yl]-5-oxa-10-thia-3-azatricyclo[7.3.0.0^2,6] dodeca-1(9),2(6),3,7,11-pentaene]"
5,> 316,"CC(C)(O)Cn1nnc2cc(-c3nc(-c4ccc5nc[nH]c5c4)no3)ccc21 [Compound 501, 1-{5-[3-(1H-1,3-benzo-diazol-6-yl)-1,2,4-oxadiazol-5-yl]-1H-1,2,3-benzotriazol-1-yl}-2-methylpropan-2-ol]"
6,< 316,"CC(C)Oc1ccc(-c2ccc(-c3ccc4c(c3)nnn4C(C)C)cc2)cc1C#N [Compound 506, 4-isopropoxy-4′-(1-isopropyl-1H-benzo[d][1,2,3]triazol-5-yl)-[1,1′-biphenyl]-3-carbonitrile]"
7,< 316,"CC(C)Nc1ccc(-c2ccc(-c3ccc4c(c3)nnn4C(C)C)cc2)cc1C#N [Compound 507, 4′-(1-isopropyl-1H-benzo[d][1,2,3]triazol-5-yl)-4-(isopropylamino)-[1,1′-biphenyl]-3-carbonitrile]"
8,> 316,"C=CCNc1ccc(-c2ccc(-c3ccc4c(c3)nnn4C(C)C)cc2)cc1C#N [Compound 508, 4-(allylamino)-4′-(1-isopropyl-1H-benzo[d][1,2,3]triazol-5-yl)-[1,1′-biphenyl]-3-carbonitrile]"
9,< 316,"CC(C)n1nnc2cc(-c3nc(-c4ccc5nc[nH]c5c4)no3)ccc21 [Compound 511, 5-[3-(1H-1,3-benzodiazol-6-yl)-1,2,4-oxadiazol-5-yl]-1-(propan-2-yl)-1H-1,2,3-benzotriazole]"
10,< 316,"Cc1cn(C)nc1-c1noc(-c2ccc3c(c2)nnn3C(C)C)n1 [Compound 519, 5-[3-(1,4-dimethyl-1H-pyrazol-3-yl)-1,2,4-oxadiazol-5-yl]-1-(propan-2-yl)-1H-1,2,3-benzotriazole]"
11,< 316,"COc1cc(NC(C)=O)ccc1-c1noc(-c2ccc3c(c2)nnn3C(C)C)n1 [Compound 532, N-(3-methoxy-4-{5-[1-(propan-2-yl)-1H-1,2,3-benzotriazol-5-yl]-1,2,4-oxadiazol-3-yl}phenyl)acetamide]"
12,< 316,"CCC1(CC)CC(=O)c2cc(-c3nc(-c4ccsc4)no3)ccc2N1 [Compound 554, 2,2-diethyl-6-(3-(thiophen-3-yl)-1,2,4-oxadiazol-5-yl)-2,3-dihydroquinolin-4(1H)-one]"
13,> 316,"CC(C)n1nnc2cc(-c3nc(-c4nccn4C)no3)ccc21 [Compound 569, 5-[3-(1-methyl-1H-imidazol-2-yl)-1,2,4-oxadiazol-5-yl]-1-(propan-2-y1)-1H-1,2,3-benzotriazole]"
14,< 316,"CC(C)n1nnc2cc(-c3noc(-c4ccccc4N)n3)ccc21 [Compound 576, 2-{3-[1-(propan-2-yl)-1H-1,2,3-benzotriazol-5-yl]-1,2,4-oxadiazol-5-yl}aniline]"
15,> 316,"CC(C)(O)Cn1nnc2cc(-c3nc(-c4cccc5cc[nH]c45)no3)ccc21 [Compound 577, 1-{5-[3-(1H-indol-7-yl)-1,2,4-oxadiazol-5-yl]-1H-1,2,3-benzotriazol-1-yl}-2-methylpropan-2-ol]"
16,> 316,"CNc1ccccc1-c1coc(-c2ccc3c(c2)nnn3C(C)C)n1 [Compound 587, N-methyl-2-{2-[1-(propan-2-yl)-1H-1,2,3-benzotriazol-5-yl]-1,3-oxazol-4-yl}aniline]"
17,< 316,"N#Cc1cc(-c2nnc(-c3ccc4[nH]cnc4c3)o2)ccc1NC1CC1 [Compound 598, 5-[5-(1H-1,3-benzo-diazol-5-yl)-1,3,4-oxadiazol-2-yl]-2-(cyclopropyl-amino)benzonitrile]"
18,< 316,"CNc1ccccc1-c1nc(-c2ccc3c(c2)nnn3C(C)C)no1 [Compound 599, N-methyl-2-{3-[1-(propan-2-yl)-1H-l,2,3-benzotriazol-5-yl]-1,2,4-oxadiazol-5-yl}aniline]"
